US20130059879A1, “Small Molecule Inhibitors of PFKFB3 and Glycolytic Flux and Their Methods of Use as Anti-Cancer Therapeutics” (UNIVERSITY OF LOUISVILLE RESEARCH FOUNDATION, INC., priority 2010, published 2013)
≈ marks a conversion by molar mass, not a printed value. Where two headings read alike, the source gives them in different places.

Legend:
NCI-H82 = test: Cancer cell proliferation, Alamar Blue assay, 72 hours; assay type: cell-based; settings: Homo sapiens, NCI-H82, read-out: IC50 NCl-H82
Procedure: (§1) The ability of the compounds described herein to kill or inhibit the proliferation of cancer cells was measured using either the MTT assay, or the Alamar Blue assay, or the Cell Titer Glow® assay using 48 or 72 hours exposure. […] The procedures are briefly described below. Cells of the desired tumor cell line were plated at 2×10^5 cells/ml in 96 well plates. Twice the indicated concentrations of the compounds of the invention were added to cells the following day in an equal volume of media. 72 hours later, cells were lysed and subjected to ATP determination using the CellTiter Glo-Luminescent Cell Viability Assay kit (Promega, Madison, Wis.). Experiments were done in triplicate. When using the MTT assay or the Alamar blue assay, the experimental conditions are essentially similar; at the end of the incubation period, 20 microliters of the MTT solution is added per well and the samples are incubated for an additional four hours, rinsed, and the absorbance at 570 nm measured. […] Table 2 lists the IC50 values for the compounds of the invention in several cell lines including Jurkat, Calu-6, NCI-H82, U937, HCT-116, and MDA-MB-231 cancer cell lines.

Jurkat = test: as above; assay type: cell-based; settings: Homo sapiens, Jurkat
Procedure: as §1

Calu-6 = test: as above; assay type: cell-based; settings: Homo sapiens, Calu-6
Procedure: as §1

PFKFB3 = molecular target: T1, PFKFB3 (Homo sapiens, UniProt Q16875); test: Inhibition of recombinant PFKFB3 kinase activity (ADP Glow assay); assay type: biochemical; settings: 250 nM analog concentration; read-out: % Inhibition of PFKFB3 Enzymatic Activity
T1 construct: GST
T1 sequence (Q16875 whole entry, species assumed): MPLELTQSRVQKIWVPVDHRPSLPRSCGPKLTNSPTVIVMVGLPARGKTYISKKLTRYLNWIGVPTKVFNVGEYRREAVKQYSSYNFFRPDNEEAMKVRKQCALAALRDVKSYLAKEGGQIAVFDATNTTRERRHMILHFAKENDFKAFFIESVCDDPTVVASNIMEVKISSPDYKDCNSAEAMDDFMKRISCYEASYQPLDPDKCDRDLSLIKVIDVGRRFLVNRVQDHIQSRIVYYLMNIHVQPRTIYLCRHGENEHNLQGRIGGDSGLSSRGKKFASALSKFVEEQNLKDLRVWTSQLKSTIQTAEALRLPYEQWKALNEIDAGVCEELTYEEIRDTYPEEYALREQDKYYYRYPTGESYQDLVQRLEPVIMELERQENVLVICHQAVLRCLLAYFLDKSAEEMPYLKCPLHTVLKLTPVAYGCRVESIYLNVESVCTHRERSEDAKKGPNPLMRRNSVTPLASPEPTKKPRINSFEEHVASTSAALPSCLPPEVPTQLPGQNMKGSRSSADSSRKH
Procedure: PFKFB3 was prepared by expression in E. coli and purified by GST column and column chromatography. […] The recombinant protein was pure and active as determined by the results of a kinase activity assay commercially available (such as ADP Glow® assay, […]). The same assay was used to determine the inhibition of the protein and the results are shown in Table 5 below (IC50 values or percent inhibition at a fixed concentration). Results confirmed that the compounds of the invention have low nanomolar IC50 values, interacting with PFKFB3 and inhibiting its enzymatic activity.

U937 = test: Cancer cell proliferation, Alamar Blue assay, 72 hours; assay type: cell-based; settings: Homo sapiens, U-937
Procedure: as §1

HCT-116 = test: as above; assay type: cell-based; settings: Homo sapiens, HCT-116
Procedure: as §1

[1] = Solubility in solvents and excipients, 1 hour at room temperature, HPLC; assay type: physicochemical; settings: thermodynamic from solid
Procedure: Chemical properties of the compounds of the invention were investigated, including the solubility in several solvents and pharmaceutically accepted excipients. […] Briefly, selected compounds of the invention are dissolved in a small volume of the solvents/excipients of interest at room temperature over 1 hour in typically 1 ml and the concentration is measured by HPLC after filtration.

[2] = Microsomal stability in human liver microsomes; assay type: in vitro ADME
Procedure: Microsomal stability in vitro in different biologic media (liver microsomes, S9 fraction, hepatocytes) and species is ascertained to evaluate the rate at which a compound undergoes metabolism in the experimental in vitro conditions. Results for some compounds of the invention after a 60 minutes incubation period in human liver microsomes are shown in the Table 6 below. […] Experimental conditions are briefly described here: the stability in human liver microsomes of several compounds was done over […] at 37° C. using pooled mixed gender human liver microsomes. These liver microsomes were prepared at 1.0 mg/ml of microsomal protein in a 100 mM potassium phosphate pH 7.4 buffer with 1 mM NADPH. The media was incubated at 37° C. with the compound in solution in DMSO. The concentration of the compound was followed by LC/MS-MS as a function of time. Samples were assayed at t=0, 15, 30, and 60 minutes. Testosterone was used as a positive control. The same experiment was performed with mouse, rat or dog liver microsomes instead of human liver microsomes.

Jurkat cells = test: Inhibition of 14C-2-deoxyglucose uptake; assay type: cell-based; settings: Homo sapiens, 3 hours
Procedure: Inhibition of PFKFB3 results in inhibiting glycolysis. Several feedback or feedforward activation and inhibition mechanisms exist so that, by a feedback mechanism, inhibiting the activity of PFKFB3 may inhibit glucose uptake by cells. An assay was developed to determine if there was inhibition of glucose uptake following exposure to the compounds on the invention. Briefly, Jurkat cells were plated at 1×10^5/mL in RPM′ 1640 supplemented with 10% fetal bovine serum and 50 μg/mL gentamicin sulfate. Cells were immediately treated with vehicle or 5 μmol/L of the compound of the invention for 3 hours and subsequently placed in glucose-free RPMI 1640 for 30 min. ^14C-2-deoxyglucose (0.25 μCi/mL; Perkin Elmer) was added for an additional 60 min and cells were then washed three with ice-cold RPMI 1640 containing no glucose. Cell lysates were collected in 500 μL of 0.1% SDS, and scintillation counts (counts/min) were measured on 400 μL of lysate. Counts were normalized to protein concentration.

MDA-MB-231 = test: Cancer cell proliferation, Alamar Blue assay, 72 hours; assay type: cell-based; settings: Homo sapiens
Procedure: as §1

[3] = aqueous with cosolvent or surfactant or cyclodextrin, Cre:EtOH:Saline 5:5:90 mixture, 1 hour at room temperature, read-out: Solubility Cre:EtOH:Saline
[4] = ethanol, organic solvent or mixture, EtOH, 1 hour at room temperature, read-out: Solubility EtOH
[5] = organic solvent or mixture, 1:1 cremophor EL-P:ethanol mixture, 1 hour at room temperature, read-out: Solubility Cre:EtOH
[6] = organic solvent or mixture, Acetone, 1 hour at room temperature, read-out: Solubility Acetone
[7] = organic solvent or mixture, Cremophor, 1 hour at room temperature, read-out: Solubility Cremophor
[8] = organic solvent or mixture, DCM, 1 hour at room temperature, read-out: Solubility DCM
[9] = organic solvent or mixture, Tween 80, 1 hour at room temperature, read-out: Solubility Tween 80
[10] = organic solvent or mixture, Tween80:EtOH 6:4 mixture, 1 hour at room temperature, read-out: Solubility Twee80:EtOH
[11] = 60 min incubation, 1.0 mg/ml microsomal protein, 1 mM NADPH, 37° C.

| IC50 (NCI-H82) [nM] | IC50 (Jurkat) [nM] | IC50 (Calu-6) [nM] | inhibition at 0.25 µM (PFKFB3) [%] | IC50 (U937) [nM] | IC50 (HCT-116) [nM] | solubility at 1 h [1, 3] [µg/mL] | solubility at 1 h [1, 4] [µg/mL] | solubility at 1 h [1, 5] [µg/mL] | solubility at 1 h [1, 6] [µg/mL] | solubility at 1 h [1, 7] [µg/mL] | solubility at 1 h [1, 8] [µg/mL] | solubility at 1 h [1, 9] [µg/mL] | solubility at 1 h [1, 10] [µg/mL] | HLM, Mean metabolized (%) ([2]; 0 min) | HLM, Mean metabolized (%) [2, 11] [%] | IC50 (MDA-MB-231) [nM] | Structure (SMILES) | inhibition at 5 µM (Jurkat cells) [%] |
| --- | --- | --- | --- | --- | --- | --- | --- | --- | --- | --- | --- | --- | --- | --- | --- | --- | --- | --- |
| 315 | 100 | 79 | 19.4 |  |  |  |  |  |  |  |  |  |  |  |  |  | Cc1ccc(C(=O)c2cc3c(ccc4ccccc43)[nH]2)cc1 [ACT-PFK-123, (3H-Benzo[e]indol-2-yl)-p-tolyl-methanone] |  |
| 155 | 1500 | 20 | 0 | 14 | 695 | 1700 (≈ 5.64 mM) | 2800 (≈ 9.29 mM) | 29700 (≈ 98.6 mM) | 25800 (≈ 85.6 mM) | 1200 (≈ 3.98 mM) | 8900 (≈ 29.5 mM) | 1800 (≈ 5.97 mM) | 18700 (≈ 62.1 mM) | 0.0 | 99 |  | COc1cccc(C(=O)c2cc3c(ccc4ccccc43)[nH]2)c1 [ACT-PFK-096, (3H-Benzo[e]indol-2-yl)-(3-methoxy-phenyl)-methanone] | 29 |
| 210 | 405 | 220 |  | 40 | 490 | 2400 (≈ 7.96 mM) | 4600 (≈ 15.3 mM) | 29000 (≈ 96.2 mM) | 9300 (≈ 30.9 mM) | 30200 (≈ 100 mM) | 10400 (≈ 34.5 mM) | 37000 (≈ 123 mM) | 32800 (≈ 109 mM) |  |  |  | COc1ccccc1C(=O)c1cc2c(ccc3ccccc32)[nH]1 [ACT-PFK-098, (3H-Benzo[e]indol-2-yl)-(2-methoxy-phenyl)-methanone] | 25 |
|  |  |  | 0 |  |  |  |  |  |  |  |  |  |  |  |  |  | O=C(c1ccc(O)cc1)c1cc2c(ccc3ccccc32)[nH]1 [ACT-PFK-100, (3H-Benzo[e]indol-2-yl)-(4-hydroxy-phenyl)-methanone] |  |
| 40200 | > 100000 | 57500 | 54.3 | 57200 | 63500 |  |  |  |  |  |  |  |  |  |  | > 100000 | O=C(O)c1ccc(C(=O)c2cc3c(ccc4ccccc43)[nH]2)cc1 [ACT-PFK-111, 4-(3H-Benzo[e]indole-2-carbonyl)-benzoic acid] |  |
| > 100000 | > 100000 | 64500 |  | > 100000 | > 100000 |  |  |  |  |  |  |  |  |  |  | > 100000 | COc1cc(C(=O)c2cc3c(ccc4ccccc43)[nH]2)ccc1OCc1ccccc1 [ACT-PFK-109, (3H-Benzo[e]indol-2-yl)-(4-benzyloxy-3-methoxy-phenyl)-methanone] | 42 |
| 385 | 240 | 420 | 0 | 95 | 1700 | 100 (≈ 0.344 mM) | 200 (≈ 0.689 mM) | 1000 (≈ 3.44 mM) | 600 (≈ 2.07 mM) | 2200 (≈ 7.58 mM) | 300 (≈ 1.03 mM) | 1600 (≈ 5.51 mM) | 1300 (≈ 4.48 mM) | 0.0 | 22.2 | 673 | O=C(c1ccncc1)c1cc2c(cc(F)c3ccccc32)[nH]1 [ACT-PFK-118, (5-Fluoro-3H-benzo[e]indol-2-yl)-pyridin-4-yl-methanone] |  |
| 315 | 110 | 70 | 3.7 | 70 | 365 | 300 (≈ 0.895 mM) | 1000 (≈ 2.98 mM) | 6100 (≈ 18.2 mM) | 5500 (≈ 16.4 mM) | 14400 (≈ 42.9 mM) | 700 (≈ 2.09 mM) | 11400 (≈ 34 mM) | 8600 (≈ 25.6 mM) | 0.0 | 79.2 | 620 | COc1cc(C(=O)c2cc3c(cc(F)c4ccccc43)[nH]2)ccc1O [ACT-PFK-119, (5-Fluoro-3H-benzo[e]indol-2-yl)-(4-hydroxy-3-methoxy-phenyl)-methanone] |  |
| 205 | 125 | 80 | 34.2 | 30 | 235 | 700 (≈ 2.19 mM) | 1300 (≈ 4.07 mM) | 8600 (≈ 26.9 mM) | 6200 (≈ 19.4 mM) | 14400 (≈ 45.1 mM) | 6000 (≈ 18.8 mM) | 15500 (≈ 48.5 mM) | 10200 (≈ 31.9 mM) | 0.0 | 45.8 | 563 | COc1cccc(C(=O)c2cc3c(cc(F)c4ccccc43)[nH]2)c1 [ACT-PFK-116, (5-Fluoro-3H-benzo[e]indol-2-yl)-(3-methoxy-phenyl)-methanone] | 0 |
| 360 | 545 | 360 |  | 205 | 475 | 4800 (≈ 15.1 mM) | 9900 (≈ 31.2 mM) | 78100 (≈ 246 mM) | 12800 (≈ 40.3 mM) | 37600 (≈ 118 mM) | 11100 (≈ 35 mM) | 16900 (≈ 53.3 mM) | 10300 (≈ 32.5 mM) | 0.0 | 73.3 | 90 | COc1cc(C(=O)c2cc3c(ccc4ccccc43)[nH]2)ccc1O [ACT-PFK-108, (3H-Benzo[e]indol-2-yl)-(4-hydroxy-3-methoxylthenyl)-methanone] | 2 |
| 10100 | 6900 | 7250 |  | 2850 | > 100000 |  |  |  |  |  |  |  |  | 0.0 | 100.0 | 11600 | O=C(c1ccccc1)c1cc2c3c(ccc2[nH]1)CCCC3 [ACT-PFK-107, Phenyl-(6,7,8,9-tetrahydro-3H-benzo[e]indol-2-yl)-methanone] |  |
